Data published in patent US10757937B2, “Sulfonamides that activate ABA receptors” (The Regents of the University of California, priority 2014, dated 2020).
Where two headings read alike, the source gives them in different places.

Assays:
PYL3 = biological target: T1, PYL3 (Arabidopsis thaliana, UniProt Q9SSM7); experiment: receptor-mediated PP2C (HAB1) inhibition in vitro assay; format: biochemical; conditions: for remaining activity at 50 µM: 50 uM of the test compound
T1 construct: 6X-His; made in house; host or cells: E. coli BL21[DE3]pLysS
T1 sequence (Q9SSM7 1-209): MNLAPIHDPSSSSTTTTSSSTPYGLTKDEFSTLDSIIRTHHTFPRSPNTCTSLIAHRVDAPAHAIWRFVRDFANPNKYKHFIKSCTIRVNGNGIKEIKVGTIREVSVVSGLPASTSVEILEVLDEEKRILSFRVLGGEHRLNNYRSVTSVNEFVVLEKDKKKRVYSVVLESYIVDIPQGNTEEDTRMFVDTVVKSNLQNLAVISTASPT
T1 sequence (Q9CAJ0 23-511 partner): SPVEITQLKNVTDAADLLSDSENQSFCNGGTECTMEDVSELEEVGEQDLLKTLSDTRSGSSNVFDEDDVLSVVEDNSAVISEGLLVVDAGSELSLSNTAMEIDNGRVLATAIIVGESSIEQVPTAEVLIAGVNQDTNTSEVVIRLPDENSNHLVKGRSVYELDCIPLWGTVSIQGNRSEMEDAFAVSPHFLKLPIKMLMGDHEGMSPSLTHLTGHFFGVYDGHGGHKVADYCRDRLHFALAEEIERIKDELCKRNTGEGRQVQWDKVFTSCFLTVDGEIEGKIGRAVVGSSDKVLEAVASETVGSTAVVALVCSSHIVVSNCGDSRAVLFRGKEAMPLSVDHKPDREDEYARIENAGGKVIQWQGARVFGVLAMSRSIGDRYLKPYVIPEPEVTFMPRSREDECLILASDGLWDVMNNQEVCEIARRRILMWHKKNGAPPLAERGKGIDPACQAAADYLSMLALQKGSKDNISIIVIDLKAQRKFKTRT
Method in brief: (§1)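 Fluorogenic readout: 4-methylumbelliferyl-phosphate hydrolysis by 50 nM GST-HAB1 plus 2:1 His-receptor; Tris-OAc pH 7.9, NaCl, 1 mM MnCl2, β-ME. Compounds at 25 μM or 50 uM single dose; IC50 from dose curves for selected compounds.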

PYL1 = biological target: T2, PYL1 (Arabidopsis thaliana, UniProt Q8VZS8); experiment: as above; format: biochemical; conditions: for remaining activity at 50 µM: 50 uM of the test compound
T2 construct: 6X-His; made in house; host or cells: E. coli BL21[DE3]pLysS
T2 sequence (Q8VZS8 1-221): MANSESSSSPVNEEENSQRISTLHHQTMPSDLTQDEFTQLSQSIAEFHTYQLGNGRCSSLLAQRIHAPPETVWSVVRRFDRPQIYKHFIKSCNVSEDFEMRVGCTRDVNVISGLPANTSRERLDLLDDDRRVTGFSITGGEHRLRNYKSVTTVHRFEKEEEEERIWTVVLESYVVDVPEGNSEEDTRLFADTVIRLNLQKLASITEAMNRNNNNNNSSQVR
T2 sequence (Q9CAJ0 23-511 partner): T1 sequence (Q9CAJ0 23-511 partner)
Method in brief: as §1

[1] = Table VII, read-out: PP2C Dose Curves PYL3 (IC50)
[2] = Table VII, read-out: PP2C Dose Curves PYL1 (IC50)
[3] = Table XII-B, calculated from dose curves, read-out: PP2C Activity (IC50 in uM) PYL3
[4] = Table XII-B, calculated from dose curves, read-out: PP2C Activity (IC50 in uM) PYL1

| SMILES | PP2C Activity PYL3 (PYL3; ABA (10 μM)) | PP2C Activity PYL1 (PYL1; ABA (10 μM)) | IC50 (PYL3; [1]) [µM] | IC50 (PYL1; [2]) [µM] | remaining activity at 50 µM (PYL3) [%] | IC50 (PYL3; [3]) [µM] | remaining activity at 50 µM (PYL1) [%] | IC50 (PYL1; [4]) [µM] |
| --- | --- | --- | --- | --- | --- | --- | --- | --- |
| CC1=CC(=O)CC(C)(C)[C@@]1(O)/C=C/C(C)=C\C(=O)O [ABA, Abscisic acid, reference compound] | 5.4 | 5.9 | – | – | – | – | – | – |
| CC(C)(C(=O)NS(=O)(=O)Cc1ccc(C#N)cc1)c1cccc(C#N)c1 [Compound 18] | – | – | > 50 | – | – | – | – | – |
| CCC(CC)(C(=O)NS(=O)(=O)Cc1ccc([N+](=O)[O-])cc1)c1ccccc1 [Compound 19] | – | – | > 50 | > 50 | – | – | – | – |
| N#Cc1ccc(CS(=O)(=O)NC(=O)C2(c3ccc(F)cc3)CCCC2)cc1 [Compound 24] | – | – | – | > 50 | – | – | – | – |
| N#Cc1ccc(CS(=O)(=O)NC(=O)C2(c3ccc(Br)cc3)CC2)cc1 [Compound 30] | – | – | > 50 | – | – | – | – | – |
| N#Cc1ccc(CS(=O)(=O)NC(=O)C2(c3cccc(C#N)c3)CC2)cc1 [Compound 50] | – | – | 20.8 | – | – | – | – | – |
| O=C(NS(=O)(=O)Cc1ccc([N+](=O)[O-])cc1)C1(c2ccccc2)CCCCC1 [Compound 63] | – | – | – | – | 127 | > 50 | 101 | > 50 |
| O=C(NS(=O)(=O)Cc1ccc(F)cc1)C1(c2ccccc2)CCCCC1 [Compound 64] | – | – | – | – | 97.4 | > 50 | 102 | > 50 |
| CC(C)COC(=O)NS(=O)(=O)Cc1ccc(C#N)cc1 [Compound 65, 2-Methylpropyl N-[(4-cyanophenyl)methanesulfonyl]carbamate] | – | – | – | – | 92.9 | > 50 | 91.7 | > 50 |
| CC1CCC(C(=O)NS(=O)(=O)Cc2ccc(C#N)cc2)(c2ccc(F)cc2)CC1 (centres unmarked) [Compound 67, N-[(4-Cyanophenyl)methanesulfonyl]-1-(4-fluorophenyl)-4-methylcyclohexane-1-carboxamide] | – | – | – | – | 101 | > 50 | 98.3 | > 50 |
| CC1(C)CCC(C(=O)NS(=O)(=O)Cc2ccc(C#N)cc2)(c2ccc(F)cc2)CC1 [Compound 68, N-[(4-Cyanophenyl)methanesulfonyl]-1-(4-fluorophenyl)-4,4-dimethylcyclohexane-1-carboxamide] | – | – | – | – | 98.3 | > 50 | 96 | > 50 |
| N#Cc1ccc(CS(=O)(=O)NC(=O)C2(c3ccccc3)CCCCC2)cc1 [Compound 69, N-[(4-Cyanophenyl)methanesulfonyl]-1-phenylcyclohexane-1-carboxamide] | – | – | – | – | 103 | > 50 | 98.4 | > 50 |
| N#Cc1ccc(CS(=O)(=O)NC(=O)C(c2ccccc2)c2ccccc2)cc1 [Compound 71, N-[(4-Cyanophenyl)methanesulfonyl]-2,2-diphenylacetamide] | – | – | – | – | 102 | > 50 | 93.8 | > 50 |
| N#Cc1ccc(CS(=O)(=O)NC(=O)C(c2ccc(F)cc2)c2ccc(F)cc2)cc1 [Compound 72, N-[(4-Cyanophenyl)methanesulfonyl]-2,2-bis(4-fluorophenyl)acetamide] | – | – | – | – | 100 | > 50 | 94.2 | > 50 |
| N#Cc1ccc(CS(=O)(=O)NC(=O)C(C2CCCCC2)C2CCCCC2)cc1 [Compound 73, N-[(4-Cyanophenyl)methanesulfonyl]-2,2-cyclohexylacetamide] | – | – | – | – | 92.7 | > 50 | 95.5 | > 50 |
| N#Cc1ccc(CS(=O)(=O)NC(=O)C2(c3cccs3)CCCCC2)cc1 [Compound 75, N-[(4-Cyanophenyl)methanesulfonyl]-1-(thiophen-2-yl)cyclohexane-1-carboxamide] | – | – | – | – | 95.4 | > 50 | 95.5 | > 50 |
| N#Cc1ccc(CS(=O)(=O)NC(=O)C2(c3ccsc3)CCCCC2)cc1 [Compound 78, N-[(4-Cyanophenyl)methanesulfonyl]-1-(thiophen-3-yl)cyclohexane-1-carboxamide] | – | – | – | – | 103 | > 50 | 95.6 | > 50 |
| N#Cc1ccc(CS(=O)(=O)NC(=O)C2(c3ccsc3)CCCCC2)cc1Br [Compound 106, N-[(4-Cyano-3-bromophenyl)methanesulfonyl]-1-(thiophen-3-yl)cyclohexane-1-carboxamide] | – | – | – | – | 96.9 | > 50 | 94.3 | > 50 |
